In US5053070A, “Pyrimidine derivatives, preparation processes thereof, herbicide containing the same, and herbicidal compositions containing the same along with other active ingredient” (Mitsui Toatsu Chemicals, Incorporated, priority 1988, dated 1991) one finds pest or weed control data, which are given here for two compounds.

What all share (assay type): in vivo
Assay [1] deals with redroot pigweed. The assay can be described thus: Upland foliar application test by mixed formulations (Test 7). Conditions: Amaranthus retroflexus, 720 h, read-out: Herbicidal effects (%) Redrood pigweed Ea. The protocol: (§1) Resin-made 1/10,000-are pots were filled with the soil of an upland field. Redroot pigweed, morningglories, johnsongrass, barnyardgrass and green foxtail were separately seeded and were allowed to germinate in a green house. When each plant grew to the stage of 2-3 leaves, an emulsion formulated from predetermined amounts of two test compounds of different kinds in a similar manner to the method described in Formulation Example 16 was diluted with water to a predetermined dilution rate and then sprayed at an application rate equal to 5 l per are onto the foliage of each plant by means of a pressure-operated ULV (ultra low volume) sprayer. Influence to the weeds were observed on the 30th day after the spray of the herbicides. In the table, each Ea means an acutally measured value of herbicidal activities when two kinds of herbicides were mixed. Each Ec is an expected value for herbicidal activities, calculated in accordance with the below-described calculation formula proposed by Colby et al. [Colby, S. R., Weed 15, 20-22 (1967)]. Ea>Ec indicates the existence of synergistic action while […] action. [formula] Ec: Growth inhibition rate (%) expected when Ingredient I and Ingredient II are mixed.
(§2) Ex: Growth inhibition rate (%) when treated with Ingredient I alone.
(§3) Ey: Growth inhibition rate (%) when treated with Ingredient II alone.

A further assay relates to green foxtail. The assay is described as above. Conditions: Setaria viridis, 720 h, read-out: Herbicidal effects (%) Green foxtail Ea. The protocol:
as §1, §2, §3

The next assay relates to barnyardgrass. The assay is described as above. Conditions: Echinochloa crus-galli, 720 h, read-out: Herbicidal effects (%) Barnyardgrass Ea. The protocol: as §1, §2, §3
The subject of a further assay is morningglories. The assay is described as above. Conditions: Ipomoea, 720 h, read-out: Herbicidal effects (%) Morningglory Ea. The procedure:
as §1, §2, §3

The test system of assay [2] is redroot pigweed. The assay can be described thus: Upland foliar application test by mixed formulations, concentration gradient (Test 8). The following applies: Amaranthus retroflexus, 960 h, read-out: Herbicidal effects Redrood pigweed Ea. The protocol: (§4) Resin-made 1/10,000-are pots were filled with the soil of an upland field. Redroot pigweed and johnsongrass were separately seeded and were allowed to germinate in a green house. When each plant grew to the stage of 2-3 leaves, emulsions formulated with concentration gradient from predetermined amounts of two test compounds of different kinds in a similar manner to the method described in Formulation Example 16 was diluted with water to a predetermined dilution rate and then sprayed at an application rate equal to 5 l per are onto the foliage of each plant by means of a pressure-operated ULV (ultra low volume) sprayer. Influence to the weeds were observed on the 40th day after the spray of the herbicides. The results are shown in Table 9, In the table, Ea have the same meanings as in Test 7, and Ea>Ec indicates the existence of synergistic action while Ea<Ec indicates the existence of antagonistic action.

For assay [3], the system named is johnsongrass. The description is as above. Conditions: Sorghum halepense, 960 h, read-out: Herbicidal effects Johnsongrass Ea. The procedure:
as §4

In assay [4] the test system is johnsongrass. The assay can be described thus: Upland foliar application test by mixed formulations (Test 7). Conditions: Sorghum halepense, 720 h, read-out: Herbicidal effects (%) Johnsongrass Ea, applied alone, 0.2 kg/ha, foliar, 30th day. The procedure:
as §1, §2, §3

The mark [5] stands for this setting: applied alone, 0.3 kg/ha, 30th day.

Turning to `O=C(O)c1cc(Oc2ccc(C(F)(F)F)cc2Cl)ccc1[N+](=O)[O-]` [blazer, reference compound], the pest or weed control at 300 g/ha in the assay on redroot pigweed [1] (setting [5]) was determined as 100%; in the assay on green foxtail (setting [5]), 40%; with barnyardgrass (setting [5]) it was 100%; in the assay with morningglories (setting [5]) it was 100%.
On to `CCC/C(=N\OCC)C1=C(O)CC(CC(C)SCC)CC1=O` (stereo not shown) [sethoxydim, reference compound], for which the pest or weed control at 100 g/ha in the assay with redroot pigweed [2] turned out to be 0%; with johnsongrass [3], 70%. The pest or weed control at 200 g/ha with redroot pigweed [2] turned out to be 0%; in the assay on johnsongrass [3], 85%; in the assay with redroot pigweed [1] it was 0%; in the assay on johnsongrass [4], 95%; in the assay with green foxtail, 100%; with barnyardgrass, 0%. The pest or weed control at 200 g/ha in the assay with morningglories worked out at 0%.
